Laboratory results: patent publication US20250197387A1, “BCL-XL DEGRADERS AND USES THEREOF” (Kymera Therapeutics, Inc., priority 2021, published 2025)
Where two headings read alike, the source gives them in different places.

How the values were obtained:
Assay type in all cases: cell-based
BCL-XL = biological target: T1, BCL-XL (Homo sapiens, UniProt Q07817); test: Bcl-xL ELISA degradation in MOLT-4 cells, 6 h; settings: for DC50: read-out: Bcl-xL ELISA in MOLT-4 degradation 6 h: Mean external-Abs DC50
T1 construct: endogenous in cells; host or cells: MOLT-4
Protocol: The letter codes for BCL-XL DC50 include: A (<0.01 μM); B (0.01-0.1 μM); C (>[…]); D (>0.5-1.0 μM); and E (>1.0 μM). The letter codes for Dmax % include A (>75%); B (50 to 75%); C (<50%).

MOLT-4 cells = test: CTG (CellTiter-Glo) cell viability assay, MOLT-4; settings: Homo sapiens, 3 day incubation, read-out: CTG Cell Viability Assay - MOLT-4 3 day: Average external-IC50
In short: (§1)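 MOLT-4 and Caki-2 cells at 10,000 cells/well exposed 3 days at 37° C., 5% CO2 to 9 doses (1:3, top 10 μM, 0.2% DMSO). Viability by CellTiter-Glo luminescence; IC50 from three-parameter logistic fit.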

Caki-2 cells = test: CTG (CellTiter-Glo) cell viability assay, Caki-2; settings: Homo sapiens, 72 h, 3 day incubation, read-out: CTG Chempartner - Caki-2 3 day: Average external-IC50
In short: as §1

T1 sequence (Q07817 whole entry): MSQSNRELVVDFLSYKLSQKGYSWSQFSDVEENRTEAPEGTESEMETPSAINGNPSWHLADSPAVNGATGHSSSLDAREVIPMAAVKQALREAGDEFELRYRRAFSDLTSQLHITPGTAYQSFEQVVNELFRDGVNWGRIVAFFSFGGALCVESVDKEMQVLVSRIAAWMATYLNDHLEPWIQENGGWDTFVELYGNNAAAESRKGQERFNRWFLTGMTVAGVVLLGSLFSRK

Compound | Dmax (BCL-XL) | DC50 (BCL-XL) | IC50 (MOLT-4 cells; MOLT-4, 72 h) | IC50 (Caki-2 cells) | IC50 (MOLT-4 cells; 72 h)
Cc1ncsc1-c1ccc([C@H](C)NC(=O)[C@@H]2C[C@@H](O)CN2C(=O)[C@@H](NC(=O)CCCCCS(=O)(=O)NC(=O)c2nc(N3CCc4cccc(C(=O)Nc5nc6ccccc6s5)c4C3)ccc2-c2cnn(CC3CCCCC3)c2C)C(C)(C)CCO)cc1 [I-365] | > 75% | 10 to 100 nM | < 100 nM | > 10000 nM | 
C#Cc1ccc(CNC(=O)[C@@H]2C[C@@H](O)CN2C(=O)[C@@H](NC(=O)CCCCS(=O)(=O)NC(=O)c2nc(N(C)c3cc(C)c(Nc4nc5cccnc5s4)nn3)ccc2-c2cnn(CC34CC5CC(CC(C5)C3)C4)c2C)C(C)(C)C)cc1 [I-453] | > 75% | 100 to 500 nM | > 3000 nM | > 10000 nM | 
Cc1ncsc1-c1ccc([C@H](C)NC(=O)[C@@H]2C[C@@H](O)CN2C(=O)[C@@H](c2cc(OC3CCN(CCNC(=O)c4nc(N5CCc6cccc(C(=O)Nc7nc8ccccc8s7)c6C5)ccc4-c4cnn(CC5CCCCC5)c4C)CC3)no2)C(C)C)cc1 [I-291] | < 50% | 500 to 1000 nM | 1000 to 3000 nM | 1000 to 10000 nM | 
Cc1ncsc1-c1ccc([C@H](C)NC(=O)[C@@H]2C[C@@H](O)CN2C(=O)[C@@H](NC(=O)C2CCN(CCCS(=O)(=O)NC(=O)c3nc(N4CCc5cccc(C(=O)Nc6nc7ccccc7s6)c5C4)ccc3-c3cnn(CC4CCCCC4)c3C)CC2)C(C)(C)C)cc1 [I-381] | > 75% | 10 to 100 nM | 100 to 1000 nM | > 10000 nM | 
C#Cc1ccc([C@H](C)NC(=O)[C@@H]2C[C@@H](O)CN2C(=O)[C@@H](NC(=O)CCCCCS(=O)(=O)NC(=O)c2nc(N(C)c3cc(C)c(Nc4nc5ccccc5s4)nn3)ccc2-c2cnn(CC34CC5CC(CC(C5)C3)C4)c2C)C(C)(C)C)c(O)c1 [I-475] | > 75% | < 10 nM | < 100 nM | > 10000 nM | 
Cc1ncsc1-c1ccc([C@H](C)NC(=O)[C@@H]2C[C@@H](O)CN2C(=O)[C@@H](NC(=O)C2CCN(CCS(=O)(=O)NC(=O)c3nc(N4CCc5cccc(C(=O)Nc6nc7ccccc7s6)c5C4)ccc3-c3cnn(CC4CCCCC4)c3C)CC2)C(C)(C)C)cc1 [I-373] | > 75% | 10 to 100 nM | 100 to 1000 nM | > 10000 nM | 
Cc1ncsc1-c1ccc([C@H](C)NC(=O)[C@@H]2C[C@H](O)CN2C(=O)[C@@H](NC(=O)CCc2ccc(S(=O)(=O)NC(=O)c3nc(N4CCc5cccc(C(=O)Nc6nc7ccccc7s6)c5C4)ccc3-c3cnn(CC4CCCCC4)c3C)cc2)C(C)(C)C)cc1 [I-285] | 50 to 75% | 100 to 500 nM | 100 to 1000 nM | 1000 to 10000 nM | 
Cc1cc(N(C)c2ccc(-c3cnn(CC4CCCC4)c3C)c(C(=O)NS(=O)(=O)CCCCCC(=O)N[C@H](C(=O)N3C[C@H](O)C[C@H]3C(=O)N[C@@H](C)c3ccc(-c4scnc4C)cc3)C(C)(C)C)n2)nnc1Nc1nc2ccccc2s1 [I-443] | > 75% | 100 to 500 nM | > 3000 nM | > 10000 nM | 
Cc1ncsc1-c1ccc([C@H](C)NC(=O)[C@@H]2C[C@@H](O)CN2C(=O)[C@@H](NC(=O)CCCCCS(=O)(=O)NC(=O)c2nc(N3CCc4cccc(C(=O)Nc5nc6ccccc6s5)c4C3)ccc2-c2ccnc(N(C)C(C)C)c2C)C(C)(C)C)cc1 [I-333] | 50 to 75% | 100 to 500 nM | 100 to 1000 nM | > 10000 nM | 
C#Cc1ccc(CNC(=O)[C@@H]2C[C@@H](O)CN2C(=O)[C@@H](NC(=O)CCCCCS(=O)(=O)NC(=O)c2nc(N(C)c3cc(C)c(Nc4nc5ccccc5s4)nn3)ccc2-c2cnn(CC34CC5CC(CC(C5)C3)C4)c2C)C(C)(C)C)cc1 [I-379] | > 75% | < 10 nM | < 100 nM | > 10000 nM | 
Cc1ncsc1-c1ccc([C@H](C)NC(=O)[C@@H]2C[C@@H](OC(=O)CCP(=O)(O)O)CN2C(=O)[C@@H](NC(=O)C2CCN(c3ccc(S(=O)(=O)NC(=O)c4nc(N5CCc6cccc(C(=O)Nc7nc8ccccc8s7)c6C5)ccc4-c4cnn(CC5CCCCC5)c4C)cc3)CC2)C(C)(C)C)cc1 [I-350] | > 75% | 10 to 100 nM |  | 1000 to 10000 nM | 100 to 1000 nM
Cc1ncsc1-c1ccc(CNC(=O)[C@@H]2C[C@@H](O)CN2C(=O)[C@@H](NC(=O)C2CCN(c3ccc(S(=O)(=O)NC(=O)c4nc(N5CCc6cccc(C(=O)Nc7nc8ccccc8s7)c6C5)ccc4-c4cnn(CC5CCCCC5)c4C)c(F)c3)CC2)C(C)(C)C)cc1 [I-339] | > 75% | < 10 nM | < 100 nM | 1000 to 10000 nM | 
C#Cc1ccc(CNC(=O)[C@@H]2C[C@@H](O)CN2C(=O)[C@@H](NC(=O)CCc2ccc(S(=O)(=O)NC(=O)c3nc(N4CCc5cccc(C(=O)Nc6nc7ccccc7s6)c5C4)ccc3-c3cnn(CC(C)C)c3C)cc2)C(C)(C)C)cc1 [I-319] | 50 to 75% | > 1000 nM | > 3000 nM | > 10000 nM | 
Cc1ncsc1-c1ccc([C@H](C)NC(=O)[C@@H]2C[C@@H](O)CN2C(=O)[C@H](NC(=O)CCCCCS(=O)(=O)NC(=O)c2nc(N3CCc4cccc(C(=O)Nc5nc6ccccc6s5)c4C3)ccc2-c2cnn(CC3CCCCC3)c2C)C(C)(C)CCO)cc1 [I-366] | > 75% | 100 to 500 nM | 1000 to 3000 nM | > 10000 nM | 
Cc1ncsc1-c1ccc([C@H](C)NC(=O)[C@@H]2C[C@@H](O)CN2C(=O)[C@@H](NC(=O)C2CCN(c3ccc(S(=O)(=O)NC(=O)c4nc(N5CCc6cccc(C(=O)Nc7nc8ccccc8s7)c6C5)ccc4-c4cnn(CC5CCCCC5)c4C)cc3F)CC2)C(C)(C)C)cc1 [I-328] | > 75% | 10 to 100 nM | < 100 nM | 1000 to 10000 nM | 
Cc1ncsc1-c1ccc([C@H](C)NC(=O)[C@@H]2C[C@@H](O)CN2C(=O)[C@@H](NC(=O)C2CCN(c3ccc(S(=O)(=O)NC(=O)c4nc(N5CCc6cccc(C(=O)Nc7nc8ccccc8s7)c6C5)ccc4-c4ccnc(N(C)C(C)C)c4C)cc3)CC2)C(C)(C)C)cc1 [I-332] | > 75% | 10 to 100 nM | 100 to 1000 nM | > 10000 nM | 
Cc1ncsc1-c1ccc([C@H](C)NC(=O)[C@@H]2C[C@@H](O)CN2C(=O)[C@@H](NC(=O)CCCCS(=O)(=O)NC(=O)c2nc(N3CCc4cccc(C(=O)Nc5nc6ccccc6s5)c4C3)ccc2-c2cnn(CC3CCCCC3)c2C)C(C)(C)C)cc1 [I-317] | > 75% | 10 to 100 nM | 100 to 1000 nM | 1000 to 10000 nM | 
Cc1ncsc1-c1ccc([C@H](C)NC(=O)[C@@H]2C[C@@H](O)CN2C(=O)[C@@H](NC(=O)CCCCCS(=O)(=O)NC(=O)c2nc(N3CCc4cccc(C(=O)Nc5nc6ccccc6s5)c4C3)ccc2-c2cnn(CC3CCCCC3)c2C)C(C)(C)CCOP(=O)(O)O)cc1 [I-415] | 50 to 75% | > 1000 nM | > 3000 nM | > 10000 nM | 
Cc1cc(N(C)c2ccc(-c3cnn(CC45CC6CC(CC(C6)C4)C5)c3C)c(C(=O)NS(=O)(=O)CCCCCc3cccc4c3n(C)c(=O)n4C3CCC(=O)NC3=O)n2)nnc1Nc1nc2ccccc2s1 (stereo not shown) [I-423] | > 75% | < 10 nM | < 100 nM | 1000 to 10000 nM | 
C#Cc1ccc([C@H](C)NC(=O)[C@@H]2C[C@@H](O)CN2C(=O)[C@@H](NC(=O)CCCCCS(=O)(=O)NC(=O)c2nc(N(C)c3cc(C)c(Nc4nc5ccccc5s4)nn3)ccc2-c2cnn(CC34CC5CC(CC(C5)C3)C4)c2C)C(C)(C)C)cc1 [I-382] | > 75% | < 10 nM | < 100 nM | > 10000 nM | 
Cc1ncsc1-c1ccc(CNC(=O)[C@@H]2C[C@@H](O)CN2C(=O)[C@@H](NC(=O)C2(F)CC2)C(C)(C)C)c(OCCN2CCN(CC[C@H](CSc3ccccc3)Nc3ccc(S(=O)(=O)NC(=O)c4ccc(N5CC6(CC(N7CCC[C@H]7c7ccccc7C7CC7)C6)C5)cc4)cc3S(=O)(=O)C(F)(F)F)CC2)c1 [I-400] | > 75% | 10 to 100 nM | 100 to 1000 nM | > 10000 nM | 
CCN1CCN(Cc2cc(S(=O)(=O)NC(=O)c3nc(N4CCc5cccc(C(=O)Nc6nc7ccccc7s6)c5C4)ccc3-c3cnn(CC4CCCCC4)c3C)ccc2N2CCC(C(=O)N[C@H](C(=O)N3C[C@H](O)C[C@H]3C(=O)NCc3ccc(-c4scnc4C)cc3)C(C)(C)C)CC2)CC1 [I-341] | > 75% | 10 to 100 nM | 100 to 1000 nM | > 10000 nM | 
